Test system: WIPI-1
Assay: WIPI-1 Screening, mRNA up-regulation in normal human keratinocytes (HEKa), Quantigene multiplex assay
Type: cell-based
Details: for HEKa Activity Level (percent up-regulation of WIPI-1 mRNA, scaled score): HEKa keratinocytes, 24 hours, vs vehicle control
Procedure: A variety of botanical extract and synthetic compounds were tested for the ability to up-regulate WIPI-1. Normal human dermal fibroblasts or keratinocytes were cultured in 96-well tissue culture treated plates, containing appropriate culture medium. Stock solutions of actives were made in an appropriate vehicle (water/Ethanol/DMSO). Cells were treated with test material or respective vehicle control diluted in growth medium for 24 hours in a humidified 37° C. incubator with 10% CO2. The concentrations of each extract are provided based on the dry weight of the given plant extract, by which is meant the weight of the extract after volatile extraction solvents have been removed. After incubation, growth medium from each plate was removed and 100 μL of lysis buffer was added to the wells and placed in 37° C. incubator with 10% CO2 for 30 minutes. At the end of incubation, the cells were collected in freezer plates and placed in −80° C. freezer, until analysis. Changes in mRNA after treatment were analysed using Panomics Quantigene multiplex assay that employs a branched DNA technology, following manufacturer's instructions (Affymetrix, CA). Percent increase (up-regulation) in mRNA for the WIPI-1 were calculated by comparing the test results to the control. The percent up-regulation is converted to a scaled score: 0: 0-20%; +: 21-40%; ++: 41-60%; +++: 61-80%; ++++: >80%.

Compound: CCOCCCNC(=O)c1coc(CN(CCCOCC)C(=O)c2ccc(Cl)cc2)n1 [Analog 1]
- HEKa Activity Level (percent up-regulation of WIPI-1 mRNA, scaled score) (concentration 0.001%): + (+: 21-40%)
- HEKa Activity Level (percent up-regulation of WIPI-1 mRNA, scaled score) (concentration 0.01%): + (+: 21-40%)
- WIPI-1 within keratinocytes upregulated (in words) (keratinocytes): upregulated

Source: US9675543B2, “Method of improving aging appearance of skin by modulation of WIPI-1” (Avon Products, Inc., priority 2012, dated 2017)
